In paper PMC12389534, “Unlocking Therapeutic Potential of Novel Thieno-Oxazepine Hybrids as Multi-Target Inhibitors of AChE/BChE and Evaluation Against Alzheimer’s Disease: In Vivo, In Vitro, Histopathological, and Docking Studies” (Pharmaceuticals, 2025):
“Also recorded” adds a separate entry of the source.

How the values were obtained:
5-HT = assay: Brain 5-HT level (fluorometric); format: in vivo, rat; details: AlCl3-induced AD rats; for 5-HT (ng/g Tissue): brain tissue, mean ± SE, n = 6
Procedure: (§1) The brain tissues of the rats were removed and rigorously washed in isotonic saline 24 h after they were euthanized following the last behavioral test. For histological investigation, four brains per group were preserved for the whole night in 10% neutral buffered formalin. The remaining six brains were split into two sections each. In order to create a 10% homogenate (w/v), the first component was instantaneously homogenized using an ice-cold solution that included 300 mM sucrose and 50 mM Tris-HCl (pH 7.4). The homogenate was centrifuged at 1800× g for 10 min at 4 °C for biochemical tests, and the supernatant was thereafter kept at −20 °C. The second portion was set aside for use in RT-PCR analysis at −80 °C [94].
Brain monoamine levels were promptly assessed following the rats’ euthanasia to prevent changes in the substance’s concentration. Dopamine (DA), norepinephrine (NE), and serotonin (5-HT) fluorometric tests were conducted on brain tissue homogenate using the Ciarlone method. […] The concentrations were articulated as nanograms per gram of fresh tissue using the fluorescence of reference solutions [95].

IL-1β = assay: Brain IL-1β level (ELISA); format: in vivo, rat; design: reduction in IL-1β levels: concentration or dose not given beside the values; details: AlCl3-induced AD rats; for IL-β (pg/g Tissue): mean ± SE, n = 6
Procedure: as §1, with “[94]. […]” for “[94].”

BDNF = assay: Brain BDNF level (ELISA); format: in vivo, rat; details: AlCl3-induced AD rats; for BDNF (ng/mL): brain tissue, mean ± SE, n = 6
Procedure: as §1
(§2) See Supplementary Information.

NFκβ = NFκβ mRNA expression (RT-qPCR); format: in vivo, rat; design: reduction of NFκβ mRNA expression: concentration or dose not given beside the values; details: AlCl3-induced AD rats; for NFκβ: mRNA expression level, mean ± SE, n = 6
Procedure: as §1, §2

Caspase-1 = Caspase-1 gene expression (RT-qPCR); format: in vivo, rat; design: reduction of Caspase-1 levels: concentration or dose not given beside the values; details: AlCl3-induced AD rats; for Caspase-1: gene expression, mean ± SE, n = 6
Procedure: as §1, §2

BChE = target: T1, BChE (Homo sapiens, UniProt P06276); assay: biochemical; details: for IC50: fluorescence kit, triplicate; for Selectivity Index BChE/AChE: ratio of IC50 BChE to IC50 AChE, <1 = preferential BChE inhibition
T1 construct: purchased Invitrogen EIABCHEF
Procedure: Using an Invitrogen BChE test kit (Catalog #EIABCHEF), the assay was performed in compliance with the supplier’s instructions. The study was conducted using black 96-well plates. […] Each well was then filled with 50 μL of the reaction mixture, which consisted of fluorescence detection reagent and butyrylthiocholine iodide in assay buffer. The plate was then left to incubate for 20 min at room temperature. Finally, excitation at 390 nm was used to observe emission at 510 nm using a microplate reader. Background fluorescence was further eliminated for each data point.

[1] = tested on: AlCl3-induced AD rat model; assay: Y-maze SAP test in AlCl3-induced AD rats; format: in vivo; details: for SAP%: mean ± SE, n = 6
Procedure: (§3) All procedures were conducted conforming to the applicable National Institutes of Health standards and regulations for the Care and Use of Laboratory Animals. In this experiment, adult male Dawley rats in excellent condition weighing between 300 and 320 g were used. The animals were acquired from the Nile Company for Pharmaceuticals and Chemical Industries (Cairo, Egypt). They were placed in a controlled laboratory setting with unrestricted access to water, a temperature range of 24 to 26 °C, and 12 h a light–dark cycle. Three rats per cage were housed in polycarbonate cages that were individually packed with paper and encased with stainless steel wire.
One kind of short-term memory that SAP can represent is spatial working memory. Three arms, designated A, B, or C, were employed in a black hardwood Y-maze with a symmetrical triangular core space. Rats were briefly positioned at the edge of one arm and given 8 min to freely navigate around the maze. When the rat’s rear paws were fully inside the arm, the entries were counted. The following formula was used to determine SAP based on the total number of arm entries and alternations: SAP (%) = [number of alternations/(total arm entries − 2)] × 100 [94].

BACE1 = assay: Brain BACE1 level (ELISA); format: in vivo, rat; design: reduction of BACE1 levels: concentration or dose not given beside the values; details: AlCl3-induced AD rats; for BACE1 (ng/mL): mean ± SE, n = 6
Procedure: as §1, with “[94]. […]” for “[94].”

TLR4 = TLR4 mRNA expression (RT-qPCR); format: in vivo, rat; design: reduction of TLR4 mRNA expression: concentration or dose not given beside the values; details: AlCl3-induced AD rats; for TLR4: mRNA expression level, mean ± SE, n = 6
Procedure: as §1, §2

[2] = tested on: brain tissue (CC, ST, FD, SN neurons); assay: Histopathological examination of brain tissue; format: in vivo, rat; details: brain sections, H&E; AlCl3-induced AD rats
Procedure: as §1
Brain tissue samples were stationed in 10% formalin for 24 h, washed with water, and then serially diluted with alcohol to induce dehydration. After being submerged in paraffin, the specimens were cut into segments that were 4 µm thick using a microtome.

NLRP3 = NLRP3 mRNA expression (RT-qPCR); format: in vivo, rat; design: reduction of NLRP3 mRNA expression: concentration or dose not given beside the values; details: AlCl3-induced AD rats; for NLRP3: mRNA expression level, mean ± SE, n = 6
Procedure: as §1, §2

Amyloid-β = assay: Brain amyloid-β level (ELISA); format: in vivo, rat; design: reduction of β-amyloid levels: concentration or dose not given beside the values; details: AlCl3-induced AD rats; for Amyloid-β (ng/g Tissue): brain, mean ± SE, n = 6
Procedure: as §1, §2

[3] = tested on: AlCl3-induced AD rat model; assay: Morris water maze (MWM) test in AlCl3-induced AD rats; format: in vivo; details: for Learning (s): escape latency; for Learning (s) / Memory (s): mean ± SE, n = 6; for Memory (s): time spent in target quadrant
Procedure: as §3
Spatial learning and memory were inspected using the MWM test. Tap water was poured into a 150 cm diameter by 60 cm high circular water tank until it reached a depth of 30 cm (25 ± 2 °C). To make the water […], non-toxic white dye was applied. The east, west, north, and south quadrants of the pool were essentially separated into four equal sections. At a specific spot in the middle of one quadrant, an escape platform with a diameter of 10 cm was submerged 2 cm below the water’s surface. The platform stood in the exact same quadrant throughout the testing. The rats’ swimming route was recorded by a video camera situated above the pool. From a designated spot in each quadrant, each rat was submerged in the water with its back turned to the pool wall, and it was then left to swim to the platform. The rats received training sessions every day for three days in a row, with four trials conducted in each session. Before the next trial began, the animals were kept a maximum of 60 s to explore the hidden platform. After that, they were permitted to relax on it for 20 s. The rat was positioned gently on the platform and allowed 20 s to rest if it took longer than 60 s to locate it. The time taken to find the platform, or the escape latency, was documented. In order to do a probing test on the fourth day, the platform was detached away, and the rats were given 60 s to swim liberally. The time spent in the assigned quadrant was counted.

T1 sequence (P06276 29-602): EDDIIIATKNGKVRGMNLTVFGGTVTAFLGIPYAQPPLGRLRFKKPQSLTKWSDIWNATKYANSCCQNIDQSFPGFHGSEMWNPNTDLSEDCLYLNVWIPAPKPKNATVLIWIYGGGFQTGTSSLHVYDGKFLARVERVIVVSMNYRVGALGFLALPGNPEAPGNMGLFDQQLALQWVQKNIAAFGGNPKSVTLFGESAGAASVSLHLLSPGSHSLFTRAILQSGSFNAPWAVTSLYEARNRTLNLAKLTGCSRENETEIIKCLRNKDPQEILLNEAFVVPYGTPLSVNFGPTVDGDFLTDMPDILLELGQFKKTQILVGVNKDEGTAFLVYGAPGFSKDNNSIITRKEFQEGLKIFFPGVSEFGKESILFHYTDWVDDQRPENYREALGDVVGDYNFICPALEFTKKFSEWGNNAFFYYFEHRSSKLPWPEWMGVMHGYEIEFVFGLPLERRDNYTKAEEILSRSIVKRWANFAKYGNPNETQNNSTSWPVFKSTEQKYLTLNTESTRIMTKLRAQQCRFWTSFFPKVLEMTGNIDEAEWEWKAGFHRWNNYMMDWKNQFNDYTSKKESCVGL

Structure (SMILES) | elevation of 5-HT levels (5-HT) | 5-HT (ng/g Tissue) (5-HT) | reduction in IL-1β levels (IL-1β) | IL-β (pg/g Tissue) (IL-1β) | BDNF (ng/mL) (BDNF) | NFκβ (NFκβ) | Caspase-1 (Caspase-1) | IC50 (BChE) | Selectivity Index BChE/AChE (BChE) | increase in SAP% [1] | SAP% [1] | reduction of BACE1 levels (BACE1) | BACE1 (ng/mL) (BACE1) | TLR4 (TLR4) | histopathological finding in CC, ST, FD and SN (NP = nuclear pyknosis) [2] | NLRP3 (NLRP3) | reduction of β-amyloid levels (Amyloid-β) | Amyloid-β (ng/g Tissue) (Amyloid-β) | Learning (s) [3] | Memory (s) [3] | further results
CCOC(=O)c1c(O)sc2c1CCCCC2 [Compound 2, Ethyl 2-hydroxy-5,6,7,8-tetrahydro-4H-cyclohepta[b]thiophene-3-carboxylate] | 1.7 fold | 3.16 ± 0.63 ^abc ng/g Tissue | 20.6% | 93.93 ± 1.26 ^abc pg/g Tissue | 64.95 ± 0.01 ^abc ng/mL | 6.53 ± 0.08 ^abc | 7.46 ± 0.120 ^abc | 5.72 ± 0.2 µM | 5.21 | 14.6% | 62.33 ± 1.05 ^abc % | 20.4% | 23.60 ± 0.2 ^abc ng/mL | 7.66 ± 0.12 ^abc | moderate NP in CC, FD, and SN, in addition to normal histology in ST; also recorded: significant NP in the CC, FD, and SN, whereas the striatal neurons’ histological structures remained normal | 8.29 ± 0.09 ^abc | 30.2% | 19.52 ± 0.15 ^abc ng/g Tissue | 33.33 ± 0.8 ^abc s | 24.17 ± 1.22 ^abc s | reduction in escape latency [3]: 32.2%
CCOC(=O)c1c(OC(=O)CCl)sc2c1CCCCC2 [Compound 4, Ethyl 2-(2-chloroacetoxy)-5,6,7,8-tetrahydro-4H-cyclohepta[b]thiophene-3-carboxylate] | 2.4 fold | 4.29 ± 0.76 ^abc ng/g Tissue | 30% | 82.82 ± 1.1 ^abc pg/g Tissue | 75.75 ± 0.01 ^abc ng/mL | 5.77 ± 0.19 ^abc | 6.46 ± 0.120 ^abc | 56.2 ± 1.93 µM | 1.36 |  | 72.67 ± 1.02 ^abc % | 26.2% | 21.89 ± 0.27 ^abc ng/mL | 6.39 ± 0.12 ^abc | moderate NP in CC and SN, a moderate number of necrotic neurons in FD, as well as normal histology of ST neurons; also recorded: significant NP in the CC, FD, and SN, whereas the striatal neurons’ histological structures remained normal | 6.30 ± 0.09 ^abc | 38.9% | 17.05 ± 0.2 ^abc ng/g Tissue | 31.5 ± 1.48 ^abc s | 26.67 ± 1.54 ^abc s | reduction in escape latency [3]: 35.9%
O=C1CN(c2ccccc2)C(=O)c2c(sc3c2CCCCC3)O1 [Compound 11, 4-Phenyl-3,4,7,8,9,10-hexahydro-6H-cyclohepta[4,5]thieno[3,2-f][1,4]oxazepine-2,5-dione] | 5.0 fold | 9.13 ± 0.36 ^abc ng/g Tissue | 42.1% | 68.56 ± 0.54 ^abc pg/g Tissue | 127.3 ± 0.01 ^abc ng/mL | 4.93 ± 0.08 ^abc | 5.92 ± 0.040 ^abc | 13.8 ± 0.48 µM | 5.18 | 22% | 69.67 ± 1.69 ^abc % | 36.5% | 18.83 ± 0.13 ^abc ng/mL | 5.56 ± 0.1 ^abc | mild NP in neurons in CC and moderate NP in ST, FD, and SN; also recorded: minor NP in the CC and significant NP in FD, ST, and SN | 5.39 ± 0.11 ^abc | 48.9% | 14.25 ± 0.16 ^abc ng/g Tissue | 25.17 ± 1.25 ^abc s | 35.17 ± 0.95 ^abc s | elevation of BDNF levels (BDNF): 3 fold; reduction of NFκβ mRNA expression (NFκβ): 41.8%; reduction of Caspase-1 levels (Caspase-1): 37.8%; reduction of TLR4 mRNA expression (TLR4): 42.2%; reduction of NLRP3 mRNA expression (NLRP3): 49.5%; increase in quadrant residence time [3]: 3.5 times
